Target: T1, NS5B from the BK strain (genotype 1b) (Hepatitis C virus genotype 1b, UniProt P26663)
T1 construct: NS5B from the BK strain (genotype 1b) is expressed in E. coli as a protein in which the 21 C-terminal amino acids are replaced; made in house; host or cells: E. coli
Assay: Hepatitis C polymerase inhibition, NS5B BK strain, 33P-GTP filter assay
Assay type: biochemical
Details: Table 1A; for inhibition at 20 µM: 20 μM compound, read-out: HCV pol % inh at 20 μM; for IC50: NS5B BK strain, read-out: HCV pol BK IC50
In short: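 Radiolabelled RNA synthesis was measured by filter capture and scintillation counting after EDTA stop. His-tagged, C-terminally truncated (Δ21) genotype 1b BK NS5B from E. coli, pre-exposed to compound for 15 min, copied a self-primed RNA template (~3 nM) with α-[33P]-GTP for 2 h at room temperature.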

T1 sequence (P26663 2420-2989): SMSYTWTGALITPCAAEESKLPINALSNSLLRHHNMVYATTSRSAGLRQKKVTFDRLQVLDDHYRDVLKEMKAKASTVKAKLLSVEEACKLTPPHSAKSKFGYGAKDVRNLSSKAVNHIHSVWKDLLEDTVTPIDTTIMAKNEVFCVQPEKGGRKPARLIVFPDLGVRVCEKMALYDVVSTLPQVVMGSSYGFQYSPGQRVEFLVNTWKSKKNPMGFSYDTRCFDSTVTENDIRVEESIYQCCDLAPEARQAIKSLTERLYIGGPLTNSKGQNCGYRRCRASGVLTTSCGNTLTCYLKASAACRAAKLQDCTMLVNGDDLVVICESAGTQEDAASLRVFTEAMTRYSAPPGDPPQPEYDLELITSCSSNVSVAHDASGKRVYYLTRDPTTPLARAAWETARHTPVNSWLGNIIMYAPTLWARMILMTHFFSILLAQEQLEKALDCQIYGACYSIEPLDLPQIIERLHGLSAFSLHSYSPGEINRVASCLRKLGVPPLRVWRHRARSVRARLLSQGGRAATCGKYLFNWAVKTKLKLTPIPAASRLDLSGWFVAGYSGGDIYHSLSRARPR

Structure (SMILES) | inhibition at 20 µM | IC50
C/C=C/CCC1(CC(=O)O)OCCc2c1[nH]c1cccc(Cl)c21 (centres unmarked) [Example 16, {5-chloro-1-[(3E)-pent-3-enyl]-1,3,4,9-tetrahydropyrano[3,4-b]indol-1-yl}acetic acid] | < 5% | > 20 µM
CCCC1(CC(=O)O)OCCc2c1[nH]c1cccc(-c3ccc(Br)cc3)c21 (centres unmarked) [Example 41, [5-(4-bromophenyl)-1-propyl-1,3,4,9-tetrahydropyrano[3,4-b]indol-1-yl]acetic acid] | 13% | > 20 µM
CCCC1(CC(=O)O)OCC(C)c2c1[nH]c1c(Cl)ccc(Cl)c21 (centres unmarked) [Example 229, (5,8-dichloro-4-methyl-1-propyl-1,3,4,9-tetrahydropyrano[3,4-b]indol-1-yl)acetic acid] | – | 7 µM
O=C(O)CC1(c2ccc([N+](=O)[O-])cc2)OCCc2c1[nH]c1cccc(Br)c21 (centres unmarked) [Example 28, [5-bromo-1-(4-nitrophenyl)-1,3,4,9-tetrahydropyrano[3,4-b]indol-1-yl]acetic acid] | < 5% | > 20 µM
CCCCC1(CC(=O)O)OCCc2c1[nH]c1c(Cl)cc(Cl)c(Cl)c21 (centres unmarked) [Example 158, (1-butyl-5,6,8-trichloro-1,3,4,9-tetrahydropyrano[3,4-b]indol-1-yl)acetic acid] | 91% | 0.28 µM
C/C=C/CCC1(CC(=O)O)OCCc2c1[nH]c1c(Cl)cccc21 (centres unmarked) [Example 77, {8-chloro-1-[(3E)-pent-3-enyl]-1,3,4,9-tetrahydropyrano[3,4-b]indol-1-yl}acetic acid] | 16% | > 20 µM
O=C(O)CC1(c2ccccc2)OCCc2c1[nH]c1c(Cl)ccc(C(F)(F)F)c21 (centres unmarked) [Example 135, [8-chloro-1-phenyl-5-(trifluoromethyl)-1,3,4,9-tetrahydropyrano[3,4-b]indol-1-yl]acetic acid] | 55% | > 20 µM
CCCC1(CC(=O)O)OCCc2c1[nH]c1c(F)ccc(F)c21 (centres unmarked) [Example 124, (5,8-difluoro-1-propyl-1,3,4,9-tetrahydro-pyrano[3,4-b]indol-1-yl)acetic acid] | 61% | 6.7 µM
CCCC1(CC(=O)O)OCCc2c1[nH]c1c(-c3ccc(C(F)(F)F)cc3)cccc21 (centres unmarked) [Example 94, {1-propyl-8-[4-(trifluoromethyl)phenyl]-1,3,4,9-tetrahydropyrano[3,4-b]indol-1-yl}acetic acid] | 33% | > 20 µM
CC1(CC(=O)O)OCCc2c1[nH]c1c(Cl)cccc21 (centres unmarked) [Example 72, (8-chloro-1-methyl-1,3,4,9-tetrahydropyrano[3,4-b]indol-1-yl)acetic acid] | 45% | > 20 µM
C/C=C/CCC1(CC(=O)O)OCCc2c1[nH]c1c(C)ccc(F)c21 (centres unmarked) [Example 145, {5-fluoro-8-methyl-1-[(3E)-pent-3-enyl]-1,3,4,9-tetrahydropyrano[3,4-b]indol-1-yl}acetic acid] | 20% | > 20 µM
CCCCC1(CC(=O)O)OCCc2c1[nH]c1cccc(Br)c21 (centres unmarked) [Example 68, (5-bromo-1-butyl-1,3,4,9-tetrahydropyrano[3,4-b]indol-1-yl)acetic acid] | 61% | 10.3 µM
CCCC1(CC(=O)O)OCCc2c1[nH]c1c(C)cc(F)c(C#N)c21 (centres unmarked) [Example 10, (5-cyano-6-fluoro-8-methyl-1-propyl-1,3,4,9-tetrahydropyrano[3,4-b]indol-1-yl)acetic acid] | – | 0.08 µM
O=C(O)CC1(c2ccc(C(=O)O)cc2)OCCc2c1[nH]c1c(Cl)ccc(Cl)c21 (centres unmarked) [Example 57, 4-[1-(carboxymethyl)-5,8-dichloro-1,3,4,9-tetrahydropyrano[3,4-b]indol-1-yl]benzoic acid] | 56% | 3 µM
CCC1(CC(=O)O)OCCc2c1[nH]c1c(F)ccc(F)c21 (centres unmarked) [Example 123, (1-ethyl-5,8-difluoro-1,3,4,9-tetrahydro-pyrano[3,4-b]indol-1-yl)acetic acid] | 51% | > 20 µM
CCC1(CC(=O)O)OCCc2c1[nH]c1c(Cl)cccc21 (centres unmarked) [Example 73, (8-chloro-1-ethyl-1,3,4,9-tetrahydropyrano[3,4-b]indol-1-yl)acetic acid] | 22% | > 20 µM
CCC1(CC(=O)O)OCCc2c1[nH]c1c(Cl)cc(C)c(Br)c21 (centres unmarked) [Example 174, (5-bromo-8-chloro-1-ethyl-6-methyl-1,3,4,9-tetrahydropyrano[3,4-b]indol-1-yl)acetic acid] | 70% | > 5 µM
CC(C)C1(CC(=O)O)OCCc2c1[nH]c1c(F)cc(F)c(Br)c21 (centres unmarked) [Example 193, (5-bromo-6,8-difluoro-1-isopropyl-1,3,4,9-tetrahydropyrano[3,4-b]indol-1-yl)acetic acid] | 69% | 4.5 µM
CCCCC1(CC(=O)O)OCCc2c1[nH]c1c(Cl)ccc(Cl)c21 (centres unmarked) [Example 67, (1-butyl-5,8-dichloro-1,3,4,9-tetrahydropyrano[3,4-b]indol-1-yl)acetic acid] | 78% | 0.76 µM
CCCC1(CC(=O)O)OCCc2c1[nH]c1c(C)cc(F)c(Br)c21 (centres unmarked) [Example 201, (5-bromo-6-fluoro-8-methyl-1-propyl-1,3,4,9-tetrahydropyrano[3,4-b]indol-1-yl)acetic acid] | 82% | 0.15 µM
CCCC1(CC(=O)O)OCCc2c1[nH]c1c(-c3ccc(C)cc3)cccc21 (centres unmarked) [Example 90, [8-(4-methylphenyl)-1-propyl-1,3,4,9-tetrahydropyrano[3,4-b]indol-1-yl]acetic acid] | 2% | > 20 µM
C/C=C/CCC1(CC(=O)O)OCCc2c1[nH]c1cccc(C#N)c21 (centres unmarked) [Example 60, {5-cyano-1-[(3E)-pent-3-enyl]-1,3,4,9-tetrahydropyrano[3,4-b]indol-1-yl}acetic acid] | 15% | > 20 µM
CCCC1(CC(=O)O)OCCc2c1[nH]c1c(F)cc(F)c(C#N)c21 (centres unmarked) [Example 195, (5-cyano-6,8-difluoro-1-propyl-1,3,4,9-tetrahydropyrano[3,4-b]indol-1-yl)acetic acid] | 90% | 0.27 µM
CCCC1(CC(=O)O)OCCc2c1[nH]c1cccc(-c3ccccc3C)c21 (centres unmarked) [Example 42, [5-(2-methylphenyl)-1-propyl-1,3,4,9-tetrahydropyrano[3,4-b]indol-1-yl]acetic acid] | 31% | > 20 µM
CCCC1(CC(=O)O)OCCc2c1n(Cc1ccccc1)c1c(Cl)ccc(Cl)c21 (centres unmarked) [Example 234, (9-benzyl-5,8-dichloro-1-propyl-1,3,4,9-tetrahydropyrano[3,4-b]indol-1-yl)acetic acid] | – | 13 µM
CCCC1(CC(=O)O)OCC(C)(C)c2c1[nH]c1c(Cl)ccc(Cl)c21 (centres unmarked) [Example 230, (5,8-dichloro-4,4-dimethyl-1-propyl-1,3,4,9-tetrahydropyrano[3,4-b]indol-1-yl)acetic acid] | – | 3.1 µM
CC1(CC(=O)O)OCCc2c1[nH]c1c(Cl)ccc(C(F)(F)F)c21 (centres unmarked) [Example 129, [8-chloro-1-methyl-5-(trifluoromethyl)-1,3,4,9-tetrahydropyrano[3,4-b]indol-1-yl]acetic acid] | 45% | > 20 µM
